*1 amine or outer side, *2 acyl side, *3 side chain or, on linkers, in order; H or OH if unused. Where a SMILES comes first, the peptide text is derived from it. [ ]: non-standard residue; d: D form. The star is where a group is joined. Phe(3,4-(OMe)2) = COc1ccc(C[C@H](N)C(=O)O)cc1OC; Lys(Et,iPr) = CCN(CCCC[C@H](N)C(=O)O)C(C)C; X2 = O=C(C(N[*:1])[C@@H](O)c1ccccc1)[*:2]; Lys(Et2) = CCN(CC)CCCC[C@H](N)C(=O)O; Lys(Me2) = CN(C)CCCC[C@H](N)C(=O)O; X1 = O=C(c1ccoc1)*
Assays:
[1] = molecular target: CBX5 chromodomain (wild type) (Homo sapiens, UniProt P45973); assay: ITC binding to wild-type CBX5 chromodomain; conditions: for fold tighter binding of CBX5 than to UNC6212 (Kme2): wild-type CBX5, relative to UNC6212
[2] = molecular target: H3K9me3 peptide (Homo sapiens) (UniProt P68431); conditions: cited from earlier work

Row | Compound | Kd [1] | fold tighter binding of CBX5 than to UNC6212 (Kme2) [1] | fold tighter binding than HP1 with H3K9me3 ([1]; CBX5 with UNC6212 vs HP1 with H3K9me3) | fold more potent than histone tail peptides H3K9me3 and H3K9me2 ([1]; KD for CBX5, ligand vs H3K9me3 and H3K9me2) | Kd [2]
1 | CCN(CCCC[C@H](NC(=O)[C@H](Cc1ccc(OC)c(OC)c1)NC(=O)[C@H](C)NC(=O)C(NC(=O)c1ccoc1)[C@@H](O)c1ccccc1)C(=O)N[C@@H](CO)C(N)=O)C(C)C (stereo partly drawn) [UNC6864, N-((8S,11S,14S,18S)-8-(((S)-1-amino-3-hydroxy-1-oxopropan-2-yl)carbamoyl)-11-(3,4-dimethoxybenzyl)-3-ethyl-18-hydroxy-2,14-dimethyl-10,13,16-trioxo-18-phenyl-3,9,12,15-tetraazaoctadecan-17-yl)furan-3-carboxamide] (X1-[X2]A[Phe(3,4-(OMe)2)][Lys(Et,iPr)]S-NH2) | 3.3 µM | about 2 fold | – | – | –
2 | COc1ccc(C[C@H](NC(=O)[C@H](C)NC(=O)C(NC(=O)c2ccoc2)[C@@H](O)c2ccccc2)C(=O)N[C@@H](CCCCN(C)C)C(=O)N[C@@H](CO)C(N)=O)cc1OC (stereo partly drawn) [UNC6212, N-((7S,10S,13S,17S)-7-(((S)-1-amino-3-hydroxy-1-oxopropan-2-yl)carbamoyl)-10-(3,4-dimethoxybenzyl)-17-hydroxy-2,13-dimethyl-9,12,15-trioxo-17-phenyl-2,8,11,14-tetraazaheptadecan-16-yl)furan-3-carboxamide] (X1-[X2]A[Phe(3,4-(OMe)2)][Lys(Me2)]S-NH2) | 5.7 µM | – | about 2.5 fold | about 5 fold | –
3 | CCN(CC)CCCC[C@H](NC(=O)[C@H](Cc1ccc(OC)c(OC)c1)NC(=O)[C@H](C)NC(=O)C(NC(=O)c1ccoc1)[C@@H](O)c1ccccc1)C(=O)N[C@@H](CO)C(N)=O (stereo partly drawn) [UNC6349, N-((8S,11S,14S,18S)-8-(((S)-1-amino-3-hydroxy-1-oxopropan-2-yl)carbamoyl)-11-(3,4-dimethoxybenzyl)-3-ethyl-18-hydroxy-14-methyl-10,13,16-trioxo-18-phenyl-3,9,12,15-tetraazaoctadecan-17-yl)furan-3-carboxamide] (X1-[X2]A[Phe(3,4-(OMe)2)][Lys(Et2)]S-NH2) | – | about 2 fold | – | – | –
4 | CBX5 (from UniProt P45973) | – | – | – | – | 30 µM

— PMC9048841 (Journal of medicinal chemistry, 2022)
